For 41 compounds, Dmax and DC50 results are on record in patent publication US20230002397A1, “SMALL MOLECULE DEGRADERS OF HELIOS AND METODS OF USE” (DANA-FARBER CANCER INSTITUTE, INC., priority 2019, published 2023).

This assay concerns the target T1, IKZF2 (Homo sapiens, UniProt Q96SW2+Q9UKS7).
T1 construct: CRISPR/Cas9—mediated insertion of the HiBiT peptide tag (Promega™) to the N-terminus of the IKZF2 gene locus; endogenous in cells; host or cells: MOLT4 cells, with CRISPR/Cas9 knock-in of HiBiT at the endogenous IKZF2 locus
In words: HiBit-IKZF2 assay (HiBiT-Helios degradation in MOLT4 cells). Type of assay: cell-based. The following applies: for Dmax: MOLT-4, extent of degradation from highest to lowest concentration, 10 μM to 0.00026 μM, read-out: Dmax; for DC50: concentration at which 50% of HiBiT-Helios degradation was achieved. The procedure: The HiBiT protein tagging system was applied to MOLT4 cells via a CRISPR/Cas9—mediated insertion of the HiBiT peptide tag (Promega™) to the N-terminus of the IKZF2 gene locus (Neon™ Transfection System). The resulting HiBiT-Helios stable cell line was treated with the following compounds in triplicates following a 13-point concentration scheme ranging from 10 μM to 0.00026 μM. At the indicated timepoints, the Nano-Glo® HiBiT Lytic Detection System (Promega™) was utilized for detecting bioluminescence of the HiBiT tag in treated cells: abundance of the tag is proportionate to the level of luminescence. Following normalization to DMSO, dose-response curves were plotted (GraphPad Prism) to determine the concentration points at which 50% of HiBiT-Helios degradation was achieved by each compound. The extent of degradation (range of luminescence) from the highest to lowest concentration points was calculated to determine the Dmax.
On the technique in general: HiBiT is a short tag that completes a luciferase, so light tracks the accessible tagged protein.

T1 sequence (Q9UKS7 whole entry): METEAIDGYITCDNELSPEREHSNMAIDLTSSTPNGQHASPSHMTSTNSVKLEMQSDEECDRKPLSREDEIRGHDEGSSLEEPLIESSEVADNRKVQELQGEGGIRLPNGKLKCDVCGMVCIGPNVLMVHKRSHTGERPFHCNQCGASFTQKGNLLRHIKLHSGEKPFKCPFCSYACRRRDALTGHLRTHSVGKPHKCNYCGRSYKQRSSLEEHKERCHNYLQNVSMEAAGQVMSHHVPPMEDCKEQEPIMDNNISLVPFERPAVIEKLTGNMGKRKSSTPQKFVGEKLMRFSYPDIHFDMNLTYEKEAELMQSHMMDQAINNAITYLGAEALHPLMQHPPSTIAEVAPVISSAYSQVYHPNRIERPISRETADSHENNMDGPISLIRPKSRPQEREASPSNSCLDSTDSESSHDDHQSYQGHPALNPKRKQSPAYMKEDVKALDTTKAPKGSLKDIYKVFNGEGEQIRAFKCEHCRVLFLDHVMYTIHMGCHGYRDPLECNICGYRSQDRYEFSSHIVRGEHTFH
T1 sequence (Q96SW2 whole entry): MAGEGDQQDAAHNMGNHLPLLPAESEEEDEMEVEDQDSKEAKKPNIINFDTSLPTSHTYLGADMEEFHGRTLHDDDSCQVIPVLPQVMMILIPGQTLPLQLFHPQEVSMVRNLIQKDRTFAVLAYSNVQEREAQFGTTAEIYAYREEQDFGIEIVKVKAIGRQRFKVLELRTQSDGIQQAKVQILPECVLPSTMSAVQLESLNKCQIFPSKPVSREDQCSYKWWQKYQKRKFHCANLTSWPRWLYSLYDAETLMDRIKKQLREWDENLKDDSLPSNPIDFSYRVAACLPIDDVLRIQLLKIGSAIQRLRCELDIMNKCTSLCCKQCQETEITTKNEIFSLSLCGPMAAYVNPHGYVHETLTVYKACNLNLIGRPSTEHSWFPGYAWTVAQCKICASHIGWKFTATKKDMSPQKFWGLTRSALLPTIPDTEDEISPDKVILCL
T1 sequence (Q16531 whole entry partner): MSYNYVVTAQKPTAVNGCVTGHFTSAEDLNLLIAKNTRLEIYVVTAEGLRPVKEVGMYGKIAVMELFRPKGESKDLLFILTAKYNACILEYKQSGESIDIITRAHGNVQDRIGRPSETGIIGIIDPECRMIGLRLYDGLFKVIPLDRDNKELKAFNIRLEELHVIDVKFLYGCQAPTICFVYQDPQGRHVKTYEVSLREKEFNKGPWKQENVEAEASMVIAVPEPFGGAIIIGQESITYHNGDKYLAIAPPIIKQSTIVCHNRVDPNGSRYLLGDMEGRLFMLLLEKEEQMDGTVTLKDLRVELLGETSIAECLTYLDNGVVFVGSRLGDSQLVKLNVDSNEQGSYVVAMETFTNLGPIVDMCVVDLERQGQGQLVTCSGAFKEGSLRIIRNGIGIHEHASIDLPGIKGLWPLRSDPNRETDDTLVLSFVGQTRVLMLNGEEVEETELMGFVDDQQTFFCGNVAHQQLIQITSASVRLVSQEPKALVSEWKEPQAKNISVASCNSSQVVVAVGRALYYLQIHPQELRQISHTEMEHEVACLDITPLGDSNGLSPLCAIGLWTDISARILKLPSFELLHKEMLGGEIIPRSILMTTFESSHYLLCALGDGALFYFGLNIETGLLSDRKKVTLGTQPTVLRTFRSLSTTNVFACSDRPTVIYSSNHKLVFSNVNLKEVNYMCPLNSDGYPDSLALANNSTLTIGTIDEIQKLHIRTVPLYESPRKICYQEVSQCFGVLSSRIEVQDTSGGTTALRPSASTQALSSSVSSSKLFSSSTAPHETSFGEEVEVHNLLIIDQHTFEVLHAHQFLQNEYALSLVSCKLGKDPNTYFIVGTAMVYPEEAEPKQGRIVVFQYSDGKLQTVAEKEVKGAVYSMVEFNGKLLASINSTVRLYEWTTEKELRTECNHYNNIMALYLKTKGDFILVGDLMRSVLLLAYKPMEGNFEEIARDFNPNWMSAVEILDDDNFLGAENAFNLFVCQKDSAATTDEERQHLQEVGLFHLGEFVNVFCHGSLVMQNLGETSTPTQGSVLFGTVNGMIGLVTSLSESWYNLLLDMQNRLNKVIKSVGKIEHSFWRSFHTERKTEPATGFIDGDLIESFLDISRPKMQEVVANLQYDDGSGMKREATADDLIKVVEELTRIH

By Dmax is commonly meant the greatest extent of degradation seen. As a reminder, the DC50 is the midpoint of the concentration-degradation curve. The low end stands for a more potent degrader, the high end for a less potent degrader. For the compound `O=C1CCC(N2Cc3cc(C4CCN(Cc5cccc(N6CCC7(CC7)C6=O)c5)CC4)ccc3C2=O)C(=O)N1` (stereo not shown) [Compound 10], the maximal degradation (Dmax) was in the range of 30 to 50% and the DC50 was in the range of 0.01 to 0.03 µM.

For the compound `O=C1CCC(N2Cc3cc(C4(O)CCN(Cc5csc(-c6ccccc6)n5)CC4)ccc3C2=O)C(=O)N1` (stereo not shown) [Compound 33], the maximal degradation (Dmax) is above 70% and the DC50 is below 0.01 µM.

In the case of `O=C1CCC(N2Cc3cc(C4CCN(Cc5cccc(Nc6ccccn6)c5)CC4)ccc3C2=O)C(=O)N1` (stereo not shown) [Compound 42, 3-(1-oxo-5-(1-(3-(pyridin-2-ylamino)benzyl)piperidin-4-yl)isoindolin-2-yl)piperidine-2,6-dione], the Dmax lay within 50 to 70% and the DC50 was below 0.01 µM.

Consider `O=C1CCC(N2Cc3cc(C4CCN(Cc5ccnc(Oc6ccccc6)c5)CC4)ccc3C2=O)C(=O)N1` (stereo not shown) [Compound 43, 3-(1-oxo-5-(1-((2-phenoxypyridin-4-yl)methyl)piperidin-4-yl)isoindolin-2-yl)piperidine-2,6-dione], for which the greatest degradation seen (Dmax) is 50 to 70% and the half-maximal degradation concentration (DC50) fell in the range of 0.03 to 0.15 µM.

Take `N#CC1(COc2ccc(CN3CCC(c4ccc5c(c4)CN(C4CCC(=O)NC4=O)C5=O)CC3)cc2)CC1` (stereo not shown) [Compound 45, 1-((4-((4-(2-(2,6-dioxopiperidin-3-yl)-1-oxoisoindolin-5-yl)piperidin-1-yl)methyl)phenoxy)methyl)cyclopropane-1-carbonitrile]: the Dmax is 50 to 70% and the DC50 fell in the range of 0.01 to 0.03 µM.

With `O=C1CCC(N2Cc3cc(C4CCN(Cc5cccc(Nc6ccccc6)c5)CC4)ccc3C2=O)C(=O)N1` (stereo not shown) [Compound 46, 3-(1-oxo-5-(1-(3-(phenylamino)benzyl)piperidin-4-yl)isoindolin-2-yl)piperidine-2,6-dione], the Dmax fell in the range of 50 to 70% and the DC50 was below 0.01 µM.

In the case of `O=C1CCC(N2Cc3cc(C4CCN(Cc5cccc(N6CCN(c7ccccc7)C6=O)c5)CC4)ccc3C2=O)C(=O)N1` (stereo not shown) [Compound 48], the Dmax lay within 50 to 70% and the 50% degradation concentration (DC50) fell in the range of 0.03 to 0.15 µM.

For the compound `O=C1CCC(N2Cc3cc(C4CCN(Cc5cccc(NC(=O)c6ccccc6)c5)CC4)ccc3C2=O)C(=O)N1` (stereo not shown) [Compound 50], the Dmax lay in the range of 50 to 70% and the DC50 lay within 0.01 to 0.03 µM.

On to `O=C1CCC(N2Cc3cc(C4CCN(Cc5cccc(N6Cc7ccccc7C6=O)c5)CC4)ccc3C2=O)C(=O)N1` (stereo not shown) [Compound 51], for which the Dmax was in the range of 50 to 70% and the half-maximal degradation concentration (DC50) was below 0.01 µM.

Consider `O=C1CCC(N2Cc3cc(C4CCN(Cc5ccc(S(=O)(=O)N6CC7C(C6)C7(F)F)cc5)CC4)ccc3C2=O)C(=O)N1` (stereo not shown) [Compound 58], for which the greatest degradation seen (Dmax) lay in the range of 30 to 50% and the 50% degradation concentration (DC50) lay within 0.01 to 0.03 µM.

With `O=C1CCC(N2Cc3cc(C4CCN(Cc5cccc(S(=O)(=O)N6CC7C(C6)C7(F)F)c5)CC4)ccc3C2=O)C(=O)N1` (stereo not shown) [Compound 59], the Dmax was 50 to 70% and the DC50 is below 0.01 µM.

For the compound `O=C1CCC(N2Cc3cc(C4CCN(Cc5cccc(S(=O)(=O)N6CCC7(CC7)C6)c5)CC4)ccc3C2=O)C(=O)N1` (stereo not shown) [Compound 60], the greatest degradation seen (Dmax) lay within 50 to 70% and the DC50 fell in the range of 0.01 to 0.03 µM.

As for `O=C1CCC(N2Cc3cc(C4CCN(Cc5cccc(S(=O)(=O)N6CC7(COC7)C6)c5)CC4)ccc3C2=O)C(=O)N1` (stereo not shown) [Compound 62], the Dmax lay within 50 to 70% and the DC50 was 0.03 to 0.15 µM.

Take `O=C1CCC(N2Cc3cc(C4CCN(Cc5ccc6c(c5)S(=O)(=O)N(c5ccccc5)C6)CC4)ccc3C2=O)C(=O)N1` (stereo not shown) [Compound 80]: the maximal degradation (Dmax) is 30 to 50% and the half-maximal degradation concentration (DC50) was in the range of 0.03 to 0.15 µM.

Regarding `O=C1CCC(N2Cc3cc(C4CCN(Cc5cccc(S(=O)(=O)N6CCOc7ccccc76)c5)CC4)ccc3C2=O)C(=O)N1` (stereo not shown) [Compound 84], the Dmax lay within 50 to 70% and the DC50 was in the range of 0.03 to 0.15 µM.

For `O=C1CCC(N2Cc3cc(C4CCN(Cc5cccc(C(=O)Nc6ccccc6)c5)CC4)ccc3C2=O)C(=O)N1` (stereo not shown) [Compound 86, 3-((4-(2-(2,6-dioxopiperidin-3-yl)-1-oxoisoindolin-5-yl)piperidin-1-yl)methyl)-N-phenylbenzamide], the Dmax fell in the range of 50 to 70% and the DC50 was below 0.01 µM.

Turning to `O=C1CCC(N2Cc3cc(C4CCN(Cc5ccc(S(=O)(=O)Nc6ccccc6)cc5)CC4)ccc3C2=O)C(=O)N1` (stereo not shown) [Compound 91], the Dmax lay within 50 to 70% and the 50% degradation concentration (DC50) was below 0.01 µM.

Turning to `CN(c1ccccc1)S(=O)(=O)c1ccc(CN2CCC(c3ccc4c(c3)CN(C3CCC(=O)NC3=O)C4=O)CC2)cc1` (stereo not shown) [Compound 92], the maximal degradation (Dmax) fell in the range of 50 to 70% and the half-maximal degradation concentration (DC50) was below 0.01 µM.

In the case of `O=C1CCC(N2Cc3cc(C4CCN(Cc5cccc(N6C(=O)Cc7ccccc76)c5)CC4)ccc3C2=O)C(=O)N1` (stereo not shown) [Compound 95], the Dmax fell in the range of 50 to 70% and the DC50 is below 0.01 µM.

As to `O=C1CCC(N2Cc3cc(C4CCN(Cc5cccc(N6CCCCS6(=O)=O)c5)CC4)ccc3C2=O)C(=O)N1` (stereo not shown) [Compound 97], the maximal degradation (Dmax) lay within 30 to 50% and the DC50 lay in the range of 0.01 to 0.03 µM.

`CN(c1ccccc1)S(=O)(=O)c1cccc(CN2CCC(c3ccc4c(c3)CN(C3CCC(=O)NC3=O)C4=O)CC2)c1` (stereo not shown) [Compound 98]: the greatest degradation seen (Dmax) was in the range of 50 to 70% and the DC50 was below 0.01 µM.

Take `CN(c1ccccn1)S(=O)(=O)c1ccc(CN2CCC(c3ccc4c(c3)CN(C3CCC(=O)NC3=O)C4=O)CC2)cc1` (stereo not shown) [Compound 99]: the greatest degradation seen (Dmax) lay in the range of 30 to 50% and the DC50 lay within 0.03 to 0.15 µM.

Turning to `O=C1CCC(N2Cc3cc(C4CCN(Cc5nccc(Nc6ccccc6)c5F)CC4)ccc3C2=O)C(=O)N1` (stereo not shown) [Compound 100], the Dmax is 50 to 70% and the DC50 is 0.01 to 0.03 µM.

In the case of `O=C1CCC(N2Cc3cc(C4CCN(Cc5cccc(Nc6ccccn6)n5)CC4)ccc3C2=O)C(=O)N1` (stereo not shown) [Compound 101], the maximal degradation (Dmax) was in the range of 30 to 50% and the half-maximal degradation concentration (DC50) was 0.01 to 0.03 µM.

Take `O=C1CCC(N2Cc3cc(C4CCN(Cc5nccc(Nc6ccccn6)n5)CC4)ccc3C2=O)C(=O)N1` (stereo not shown) [Compound 102]: the Dmax was in the range of 50 to 70% and the DC50 fell in the range of 0.01 to 0.03 µM.

As to `O=C1CCC(N2Cc3cc(C4CCN(Cc5ccc6c(c5)C(=O)N(c5ccccc5)CC6)CC4)ccc3C2=O)C(=O)N1` (stereo not shown) [Compound 105, 3-(1-oxo-5-(1-((1-oxo-2-phenyl-1,2,3,4-tetrahydroisoquinolin-7-yl)methyl)piperidin-4-yl)isoindolin-2-yl)piperidine-2,6-dione], the Dmax was 50 to 70% and the DC50 is below 0.01 µM.

With `O=C1CCC(N2Cc3cc(C4CCN(Cc5ccccc5C(=O)N5CC6C(C5)C6(F)F)CC4)ccc3C2=O)C(=O)N1` (stereo not shown) [Compound 111], the greatest degradation seen (Dmax) lay in the range of 30 to 50% and the half-maximal degradation concentration (DC50) was 0.03 to 0.15 µM.

With `O=C1CCC(N2Cc3cc(C4CCN(Cc5cccc6c5CN(c5ccccc5)C6=O)CC4)ccc3C2=O)C(=O)N1` (stereo not shown) [Compound 113], the greatest degradation seen (Dmax) lay in the range of 30 to 50% and the 50% degradation concentration (DC50) is below 0.01 µM.

For `O=C1CCC(N2Cc3cc(C4CCN(Cc5ccnc(Nc6ccccn6)c5)CC4)ccc3C2=O)C(=O)N1` (stereo not shown) [Compound 115], the greatest degradation seen (Dmax) was in the range of 50 to 70% and the DC50 was below 0.01 µM.

With `O=C1CCC(N2Cc3cc(C4CCN(Cc5cc(Nc6ccccc6)ncn5)CC4)ccc3C2=O)C(=O)N1` (stereo not shown) [Compound 116], the maximal degradation (Dmax) was 30 to 50% and the DC50 was in the range of 0.03 to 0.15 µM.

In the case of `O=C1CCC(N2Cc3cc(C4CCN(Cc5ccccc5N5Cc6ccccc6C5=O)CC4)ccc3C2=O)C(=O)N1` (stereo not shown) [Compound 117], the Dmax fell in the range of 30 to 50% and the DC50 lay in the range of 0.03 to 0.15 µM.

On to `O=C1CCC(N2Cc3cc(C4CCN(Cc5cccc(N6C(=O)Cc7cccnc76)c5)CC4)ccc3C2=O)C(=O)N1` (stereo not shown) [Compound 118], for which the Dmax was 30 to 50% and the DC50 was 0.03 to 0.15 µM.

With `O=C1CCC(N2Cc3cc(C4CCN(Cc5cccnc5Oc5ccccc5)CC4)ccc3C2=O)C(=O)N1` (stereo not shown) [Compound 119], the Dmax fell in the range of 30 to 50% and the half-maximal degradation concentration (DC50) lay within 0.03 to 0.15 µM.

`O=C1CCC(N2Cc3cc(C4CCN(Cc5ccccc5Nc5ccccn5)CC4)ccc3C2=O)C(=O)N1` (stereo not shown) [Compound 120]: the greatest degradation seen (Dmax) lay within 50 to 70% and the DC50 lay in the range of 0.01 to 0.03 µM.

As for `O=C1CCC(N2Cc3cc(C4CCN(Cc5cccc6c5C(=O)N(c5ccccc5)C6)CC4)ccc3C2=O)C(=O)N1` (stereo not shown) [Compound 121], the Dmax fell in the range of 30 to 50% and the DC50 is 0.03 to 0.15 µM.

Consider `O=C1CCC(N2Cc3cc(C4CCN(Cc5ccnc(Nc6ccccc6)n5)CC4)ccc3C2=O)C(=O)N1` (stereo not shown) [Compound 122], for which the greatest degradation seen (Dmax) was 30 to 50% and the DC50 was in the range of 0.01 to 0.03 µM.

For `O=C1CCC(N2Cc3cc(C4CCN(Cc5ccc6c(c5)CN(c5ccccc5)C6=O)CC4)ccc3C2=O)C(=O)N1` (stereo not shown) [Compound 123], the Dmax lay within 50 to 70% and the 50% degradation concentration (DC50) lay within 0.01 to 0.03 µM.

`O=C1CCC(N2Cc3cc(C4CCN(Cc5cccc6c5CN(c5ccccn5)C6=O)CC4)ccc3C2=O)C(=O)N1` (stereo not shown) [Compound 124]: the Dmax lay within 50 to 70% and the DC50 was 0.01 to 0.03 µM.

With `O=C1CCC(N2Cc3cc(C4CCN(Cc5cccc(N6Cc7ncccc7C6=O)c5)CC4)ccc3C2=O)C(=O)N1` (stereo not shown) [Compound 125], the Dmax was 50 to 70% and the half-maximal degradation concentration (DC50) is below 0.01 µM.

With `O=C1CCC(N2Cc3cc(C4CCN(Cc5ccnc(Nc6ccccc6)c5F)CC4)ccc3C2=O)C(=O)N1` (stereo not shown) [Compound 126], the maximal degradation (Dmax) is 50 to 70% and the DC50 fell in the range of 0.01 to 0.03 µM.

Turning to `O=C1CCC(N2Cc3cc(C4CCN(Cc5cccc(Nc6cccnn6)c5)CC4)ccc3C2=O)C(=O)N1` (stereo not shown) [Compound 127], the Dmax was in the range of 50 to 70% and the half-maximal degradation concentration (DC50) lay in the range of 0.01 to 0.03 µM.
